The source of these data is EP4768489A1, “CYCLOBUTYL-CONTAINING COMPOUNDS” (Chia Tai Tianqing Pharmaceutical Group Co., Ltd., priority 2023, dated 2025).

One series has as its system VCaP cells. The series can be described thus: Assay on inhibitory activity for VCaP cell proliferation (CCK-8). Type of series: cell-based. The following applies: Homo sapiens, 168 h.
Series [1] addresses T1, AR in LNCaP (T878A) cells (Homo sapiens, UniProt P10275, T878A).
T1 construct: Assay on degradation activity for AR in LNCaP (T878A) cells; endogenous in cells; host or cells: LNCaP cells
T1 sequence (P10275 1-920 T878A): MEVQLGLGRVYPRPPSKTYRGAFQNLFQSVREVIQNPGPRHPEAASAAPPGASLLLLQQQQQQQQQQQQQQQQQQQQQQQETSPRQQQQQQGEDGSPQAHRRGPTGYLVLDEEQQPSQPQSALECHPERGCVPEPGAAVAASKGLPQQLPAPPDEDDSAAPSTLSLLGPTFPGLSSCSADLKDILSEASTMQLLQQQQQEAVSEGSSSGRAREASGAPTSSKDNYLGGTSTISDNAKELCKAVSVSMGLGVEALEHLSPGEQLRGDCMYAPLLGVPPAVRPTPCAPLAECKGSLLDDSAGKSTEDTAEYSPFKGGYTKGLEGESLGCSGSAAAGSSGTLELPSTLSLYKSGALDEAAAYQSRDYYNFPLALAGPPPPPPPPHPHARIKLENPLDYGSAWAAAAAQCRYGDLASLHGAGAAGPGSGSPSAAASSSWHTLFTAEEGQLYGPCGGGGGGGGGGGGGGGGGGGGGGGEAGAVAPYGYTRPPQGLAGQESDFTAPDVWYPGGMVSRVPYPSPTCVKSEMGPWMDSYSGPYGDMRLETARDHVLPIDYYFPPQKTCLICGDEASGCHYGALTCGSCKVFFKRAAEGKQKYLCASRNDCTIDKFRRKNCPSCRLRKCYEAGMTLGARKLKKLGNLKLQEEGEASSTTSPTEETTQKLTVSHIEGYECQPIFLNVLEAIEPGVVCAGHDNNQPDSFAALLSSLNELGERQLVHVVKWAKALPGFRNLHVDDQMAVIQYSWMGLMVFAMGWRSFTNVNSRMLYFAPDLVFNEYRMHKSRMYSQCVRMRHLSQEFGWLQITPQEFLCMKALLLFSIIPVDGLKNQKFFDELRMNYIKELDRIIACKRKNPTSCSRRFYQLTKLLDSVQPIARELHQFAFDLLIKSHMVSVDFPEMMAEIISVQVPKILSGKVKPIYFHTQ
Kind of series: Assay on degradation activity for AR in LNCaP (T878A) cells (HTRF). Type of series: cell-based. As to conditions: maximum degradation rate, 24 h. The protocol:
The detection was carried out using the HTRF HUMAN ANDROGEN RECEPTOR DETECTION KIT (cisbio, 64ANDRPEG), 4× Supplemented Lysis buffer was prepared using the Blocking reagent stock solution (100×) and Lysis buffer stock solution (4×), and 1× Supplemented Lysis buffer was prepared using the 4× Supplemented Lysis buffer and ddH2O. Premixed antibody solutions were prepared using Detection buffer, Androgen Receptor Eu Cryptate antibody, and Androgen Receptor d2 antibody.
The cells were cultured overnight in a cell incubator. […] After the cells were oscillated for 40 min at room temperature, 16 µL of the cell lysis buffer was added to a 384-well plate, the Premixed antibody solutions were added at 4 µL/well, and the mixture was left to stand at 25 °C for 2 h. […] Table 2. Degradation activity of compounds for AR in LNCaP (T878A) cells

The next series has as its system LNCaP (T878A) cells. Kind of series: cells. As to conditions: Homo sapiens, 168 h.
Series [2] can be described thus: In vitro liver microsome stability, human. Type of series: in vitro ADME. The following applies: human liver microsomes 0.5 mg/mL, 37 °C, NADPH. The protocol: (§1) Liver microsome incubation samples were prepared by mixing a PBS buffer (pH 7.4), a liver microsome solution (0.5 mg/mL), a test compound, and an NADPH + MgCl2 solution, followed by incubation at 37 °C and 300 rpm for 1 h. Zero-hour samples were prepared by mixing a PBS buffer (pH 7.4), a liver microsome solution (0.5 mg/mL), and a test compound. […]
In general terms: Liver microsomes are a subcellular fraction often used to study metabolism.

A short description of series [3]: In vitro liver microsome stability, mouse. Type of series: in vitro ADME. As to conditions: mouse liver microsomes 0.5 mg/mL, 37 °C, NADPH. The protocol: as §1

As to `COc1cc(O[C@H]2C(C)(C)[C@H](NC(=O)c3ccc(N4CCC(CN5CCc6c(ccc7c(C8CCC(=O)NC8=O)noc67)C5)CC4)cn3)C2(C)C)ccc1C#N` (some centres unmarked) [Compound 2], the results for the IC50 with VCaP cells and in the series with LNCaP (T878A) cells were < 2000 nM and < 50 nM, respectively. In addition, in series [1], the Dmax is > 90%. For the same compound, the “HLM (human) Remaining amount at 60 min %” value in series [2] is listed as >70%. Also, the “MLM (mouse) Remaining amount at 60 min %” value in series [3] is given as >70%.

By IC50 is commonly meant the concentration at which inhibition is half-maximal. Read a high IC50 as weaker potency. Usually Dmax stands for the largest share of the target that was removed.
